Measurements taken from PubChem BioAssay (NCI).
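Values below derive from 48-hour exposures of cells grown in 96-well plates, with endpoints linearly interpolated between the two concentrations bracketing the appropriate inhibition level. At the TGI there is no net growth.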

Experiments:
Assay in all cases: NCI tumour cell line growth inhibition, 48 h
[1] = tested on: LOX IMVI melanoma
[2] = tested on: UO-31 renal
[3] = tested on: CCRF-CEM leukemia
[4] = tested on: SF-295 CNS
[5] = tested on: HL-60(TB) leukemia
[6] = tested on: HCC-2998 colon
[7] = tested on: SW-620 colon
[8] = tested on: T-47D breast
[9] = tested on: UACC-257 melanoma
[10] = tested on: A498 renal
[11] = tested on: TK-10 renal
[12] = tested on: ACHN renal
[13] = tested on: SR leukemia
[14] = tested on: SF-268 CNS
[15] = tested on: HS 578T breast
[16] = tested on: PC-3 prostate
[17] = tested on: 786-0 renal
[18] = tested on: SK-MEL-2 melanoma
[19] = tested on: K-562 leukemia
[20] = tested on: SF-539 CNS

SMILES: O=C(CCC(NC(=O)OCc1ccccc1)C(=O)OCc1ccccc1)Nc1ccc(OCc2ccccc2)cc1 (stereo not given)
- TGI [1]: > 31.6 µM
- TGI [2]: > 10 µM
- TGI [3]: > 31.6 µM
- TGI [4]: > 31.6 µM
- TGI [5]: > 31.6 µM
- TGI [6]: > 31.6 µM
- TGI [7]: > 31.6 µM
- TGI [8]: > 31.6 µM
- TGI [9]: > 31.6 µM
- TGI [10]: > 10 µM
- TGI [11]: > 31.6 µM
- TGI [12]: > 31.6 µM
- TGI [13]: > 31.6 µM
- TGI [14]: > 31.6 µM
- TGI [15]: > 31.6 µM
- TGI [16]: 28.4 µM
- TGI [17]: 17.4 µM
- TGI [18]: > 10 µM
- TGI [19]: > 31.6 µM
- TGI [20]: > 31.6 µM

SMILES: CN(CC1(CO)CCC1)c1cc(Cl)nc(N)n1
- TGI [1]: > 100 µM
- TGI [2]: > 100 µM
- TGI [3]: > 100 µM
- TGI [4]: > 100 µM
- TGI [5]: > 100 µM
- TGI [6]: > 100 µM
- TGI [7]: > 100 µM
- TGI [8]: > 100 µM
- TGI [9]: > 100 µM
- TGI [10]: > 100 µM
- TGI [11]: > 100 µM
- TGI [12]: > 100 µM
- TGI [13]: > 100 µM
- TGI [14]: > 100 µM
- TGI [15]: > 100 µM
- TGI [16]: > 100 µM
- TGI [17]: > 100 µM
- TGI [18]: > 100 µM
- TGI [19]: > 100 µM
- TGI [20]: > 100 µM

SMILES: CCOC(=O)c1c(N2CCCC2)nsc1Nc1ccc(F)cc1
- TGI [1]: > 100 µM
- TGI [2]: 46.8 µM
- TGI [3]: 73.7 µM
- TGI [4]: > 100 µM
- TGI [5]: 58.8 µM
- TGI [6]: > 100 µM
- TGI [7]: > 100 µM
- TGI [8]: 46 µM
- TGI [9]: > 100 µM
- TGI [10]: > 100 µM
- TGI [11]: > 100 µM
- TGI [12]: > 100 µM
- TGI [13]: > 100 µM
- TGI [14]: > 100 µM
- TGI [15]: > 100 µM
- TGI [16]: > 100 µM
- TGI [17]: > 100 µM
- TGI [18]: 46.4 µM
- TGI [19]: > 100 µM
- TGI [20]: > 100 µM

SMILES: CN(C)CCCNC(=O)CCNC(=O)c1cc(NC(=O)c2cc(NC(=O)c3cc(NC(=O)c4nc(NC(=O)CCCNC(=O)c5cc(NC(=O)c6cc(NC(=O)c7cc(NC(=O)c8nccn8C)cn7C)cn6C)cn5C)cn4C)cn3C)cn2C)cn1C
- TGI [1]: > 100 µM
- TGI [2]: > 100 µM
- TGI [3]: > 100 µM
- TGI [4]: > 100 µM
- TGI [5]: > 100 µM
- TGI [6]: > 100 µM
- TGI [7]: > 100 µM
- TGI [8]: > 100 µM
- TGI [9]: > 100 µM
- TGI [10]: > 100 µM
- TGI [11]: > 100 µM
- TGI [12]: > 100 µM
- TGI [13]: > 100 µM
- TGI [14]: > 100 µM
- TGI [15]: > 100 µM
- TGI [16]: > 100 µM
- TGI [17]: > 100 µM
- TGI [18]: > 100 µM
- TGI [19]: > 100 µM
- TGI [20]: > 100 µM
